Data taken from paper PMC7724566, “Prospects for Clinical Development of Stat5 Inhibitor IST5-002: High Transcriptomic Specificity in Prostate Cancer and Low Toxicity In Vivo” (Cancers, 2020).

How the values were obtained:
Stat5 = target: T1, Stat5 (Homo sapiens, UniProt P42229); assay: Native-gel-based Stat5 dimerization assay, CWR22Rv1 cells; format: cell-based; conditions: 1 µM, 6 h, Prl (10 nM) stimulated CWR22Rv1 cells, STAT5A-eYFP
T1 construct: expressed in transfected cells; host or cells: CWR22Rv1
Source text: Having established that IST5 and IST5-M both interrupt phosphorylation of Stat5, we next investigated the potency of IST5-M vs. IST5 in suppressing dimerization of Stat5 in PC cells. First, we performed a native Polyacrylamide Gel Electrophoresis (PAGE) based Stat5 dimerization assay established originally by Fahrenkamp et al., where CWR22Rv1 cells were transfected with STAT5A-eYFP (Stat5 wild type), STAT5A-N642H-eYFP (constitutive activated Stat5 by N642H mutation, as a positive control) or STAT3-eYFP (Stat3 wild type, as a negative control) constructs for 3 days (Figure 5A). CWR22Rv1 cells were starved for 16 h, pretreated with vanadate (1 mM) for 2 h, followed by treatment with vehicle, IST5 or IST5-M (1 µM) for 6 h and stimulation with Prl (10 nM) for 1 h.
Figure 5 Both IST5 and IST5-M suppress dimerization of Stat5 with similar efficacies in prostate cancer cells. (A), IST5 and IST5-M inhibit equally potently dimerization of Stat5 in native-gel-based Stat5 dimerization assay. […] Dimerization of Stat5 was analyzed by detection of the eYFP fluorescence of the native Coomassie gel. […] (E), differences in posttranslational modifications were detected between native and recombinant STAT5a using mass spectrometry. Native STAT5a from CWR22Rv1 cells and recombinant STAT5a from E. coli were gel-purified, digested using trypsin, and analyzed by bottom-up mass spectrometry. […]

C57BL/6j mice = assay: Sub-chronic toxicity study (10 days), plasma biochemistry; format: in vivo; conditions: daily i.p. 10 days; for A-G Ratio / ALT / AST / Albumin / Alk.Ptase / Bile Acid / Chol / TBIL / Globulin / BUN: plasma; for Globulin: in g/dL (unit assumed); for BUN: in mg/dL (unit assumed)
Procedure: The sub-chronic toxicity study (10 days) was carried out in C57BL/6J mice (8 weeks) (stock 000664) (n = 10/dose group 5 of each sex). IST5 was administered daily (0, 10, 30 and 100 mg/kg) via i.p. injection. Vehicle (0 mg/kg) group mice received a single i.p. injection of 0.3% hydroxypropyl cellulose. Plasma samples were analyzed for aspartate aminotransferase (AST), alanine aminotransferase (ALT), sorbitol dehydrogenase (SDH), alkaline phosphatase (ALP), γ-lutamyltransferase (GGT), lactate dehydrogenase (LDH), bilirubin (TBIL), protein (TP), glucose (GLU), blood urea nitrogen (BUN), creatinine (CREAT), and electrolytes (Na, K, Cl, Ca, CO2) (Marshfield Labs, WI, USA). A detailed hematological analysis was carried out on the sub-mandibular blood samples of mice collected at the end of the protocol and analyzed for white blood cells, red blood cells, hemoglobin, lymphocyte counts, monocytes, eosinophils and granulocytes. Brain, liver, heart, kidney and spleen were harvested, weighed and fixed in 10% buffered formalin and processed for histopathological analysis. In histopathological analysis, gross morphology and ultra-structural change were assessed. The clinical chemistry parameters measured were the same as those used for the acute toxicity study.

T1 sequence (P42229 whole entry, species assumed): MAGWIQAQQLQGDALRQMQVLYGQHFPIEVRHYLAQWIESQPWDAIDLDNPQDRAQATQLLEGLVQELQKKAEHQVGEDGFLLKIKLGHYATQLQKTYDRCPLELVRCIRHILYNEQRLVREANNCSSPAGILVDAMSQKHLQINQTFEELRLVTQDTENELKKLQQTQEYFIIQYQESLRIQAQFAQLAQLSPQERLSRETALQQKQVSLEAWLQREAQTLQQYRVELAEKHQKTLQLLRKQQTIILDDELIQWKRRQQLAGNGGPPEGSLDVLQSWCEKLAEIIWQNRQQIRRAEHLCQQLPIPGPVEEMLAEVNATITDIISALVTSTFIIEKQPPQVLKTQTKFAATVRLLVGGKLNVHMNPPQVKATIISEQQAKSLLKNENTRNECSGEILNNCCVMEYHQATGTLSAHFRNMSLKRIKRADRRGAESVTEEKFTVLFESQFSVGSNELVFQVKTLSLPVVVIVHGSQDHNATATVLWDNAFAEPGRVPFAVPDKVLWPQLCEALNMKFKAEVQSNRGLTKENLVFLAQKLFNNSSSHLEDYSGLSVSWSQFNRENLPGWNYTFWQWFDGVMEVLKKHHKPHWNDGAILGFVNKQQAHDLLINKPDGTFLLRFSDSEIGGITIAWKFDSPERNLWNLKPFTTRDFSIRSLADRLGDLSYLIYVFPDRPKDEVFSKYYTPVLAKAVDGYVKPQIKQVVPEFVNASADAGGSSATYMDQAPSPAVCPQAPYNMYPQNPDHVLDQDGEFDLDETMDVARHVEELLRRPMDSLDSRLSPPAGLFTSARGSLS

What does the source list for `O=P(O)(O)OCC1OC(n2cnc3c(NCc4ccccc4)ncnc32)C(O)C1O` (stereo not shown) [IST5]?
inhibition of Stat5 dimerization (Stat5): inhibited robustly; BW (C57BL/6j mice; 10 mg/kg): 22.5 ± 1.1 gm; HCT (C57BL/6j mice; 10 mg/kg): 0.43 ± 0.02 L/L; A-G Ratio (C57BL/6j mice; 10 mg/kg): 1.93 ± 0.08; ALT (C57BL/6j mice; 10 mg/kg): 50.4 ± 3.71 U/L; AST (C57BL/6j mice; 10 mg/kg): 329.9 ± 30.9 U/L; Albumin (C57BL/6j mice; 10 mg/kg): 2.69 ± 0.05 g/dL; Alk.Ptase (C57BL/6j mice; 10 mg/kg): 51.3 ± 0.72 U/L; Bile Acid (C57BL/6j mice; 10 mg/kg): 21.0 ± 12.7 µmol/dL; Chol (C57BL/6j mice; 10 mg/kg): 65.0 ± 2.09 mg/dL; TBIL (C57BL/6j mice; 10 mg/kg): 0.26 ± 0.02 mg/dL; Globulin (C57BL/6j mice; 10 mg/kg): 1.41 ± 0.04; BUN (C57BL/6j mice; 10 mg/kg): 20.5 ± 0.82; BW (C57BL/6j mice; 30 mg/kg): 23.5 ± 0.6 gm; HCT (C57BL/6j mice; 30 mg/kg): 0.45 ± 0.01 L/L; A-G Ratio (C57BL/6j mice; 30 mg/kg): 1.9 ± 0.11; ALT (C57BL/6j mice; 30 mg/kg): 45.2 ± 3.76 U/L; AST (C57BL/6j mice; 30 mg/kg): 336 ± 57.1 U/L; Albumin (C57BL/6j mice; 30 mg/kg): 2.74 ± 0.07 g/dL; Alk.Ptase (C57BL/6j mice; 30 mg/kg): 53.0 ± 1.93 U/L; Bile Acid (C57BL/6j mice; 30 mg/kg): 2.39 ± 0.32 µmol/dL; Chol (C57BL/6j mice; 30 mg/kg): 70.3 ± 1.38 mg/dL; TBIL (C57BL/6j mice; 30 mg/kg): 0.21 ± 0.01 mg/dL; Globulin (C57BL/6j mice; 30 mg/kg): 1.47 ± 0.07; BUN (C57BL/6j mice; 30 mg/kg): 25 ± 1.32
